Laboratory results published in patent US11178873B2, “Cyclic N-carboxamide compounds useful as herbicides” (FMC CORPORATION, priority 2015, dated 2021).

Key:
Format in all cases: in vivo
[1] = system: barnyardgrass (Echinochloa crus-galli); test: Test A preemergence, barnyardgrass; conditions: 0 to 100 scale, 0 no effect, 100 complete control
Source text: (§1) Seeds of plant species selected from barnyardgrass (Echinochloa crus-galli), crabgrass, large (large crabgrass, Digitaria sanguinalis), kochia (Kochia scoparia), ragweed (common ragweed, Ambrosia elatior), morningglory (Ipomoea spp.), velvetleaf (Abutilon theophrasti), ryegrass, Italian (Italian ryegrass, Lolium multiflorum), foxtail, giant (giant foxtail, Setaria faberii), wheat (Triticum aestivum), corn (Zea mays), and pigweed (Amaranthus retroflexus), were planted into a blend of loam soil and sand and treated preemergence with a directed soil spray using test chemicals formulated in a non-phytotoxic solvent mixture which included a surfactant. At the same time, plants selected from these crop and weed species and also blackgrass (Alopecurus myosuroides), and galium (catchweed bedstraw, Galium aparine), were planted in pots containing the same blend of loam soil and sand and treated with postemergence applications of test chemicals formulated in the same manner. Plants ranged in height from 2 to 10 cm and were in the one- to two-leaf stage for the postemergence treatment. Treated plants and untreated controls were maintained in a greenhouse for approximately 10 d, after which time all treated plants were compared to untreated controls and visually evaluated for injury. Plant response ratings, summarized in Table A, are based on a 0 to 100 scale where 0 is no effect and 100 is complete control. A dash (-) response means no test result.

[2] = system: foxtail, giant (giant foxtail, Setaria faberii); test: Test A postemergence, foxtail, giant; conditions: 0 to 100 scale, 0 no effect, 100 complete control
Source text: as §1

[3] = system: pigweed (Amaranthus retroflexus); test: Test A preemergence, pigweed; conditions: 0 to 100 scale, 0 no effect, 100 complete control
Source text: as §1

[4] = system: ragweed (common ragweed, Ambrosia elatior); test: Test A postemergence, ragweed; conditions: 0 to 100 scale, 0 no effect, 100 complete control
Source text: as §1

[5] = system: ryegrass, Italian (Italian ryegrass, Lolium multiflorum); test: Test A preemergence, ryegrass, Italian; conditions: 0 to 100 scale, 0 no effect, 100 complete control
Source text: as §1

rice (Oryza sativa) = test: Test B flooded paddy test, rice; conditions: Flood, scale 0 to 100 (0 no effect, 100 complete control), 13 to 15 d
Experimental: (§2) Plant species in the flooded paddy test selected from rice (Oryza sativa), sedge, umbrella (small-flower umbrella sedge, Cyperus difformis), ducksalad (Heteranthera limosa), and barnyardgrass (Echinochloa crus-galli) were grown to the 2-leaf stage for testing. At time of treatment, test pots were flooded to 3 cm above the soil surface, treated by application of test compounds directly to the paddy water, and then maintained at that water depth for the duration of the test. Treated plants and controls were maintained in a greenhouse for 13 to 15 d, after which time all species were compared to controls and visually evaluated. Plant response ratings, summarized in Table B, are based on a scale of 0 to 100 where 0 is no effect and 100 is complete control. A dash (-) response means no test result.

[6] = system: foxtail, giant (giant foxtail, Setaria faberii); test: Test A preemergence, foxtail, giant; conditions: 0 to 100 scale, 0 no effect, 100 complete control
Source text: as §1

corn (Zea mays) = test: Test A postemergence, corn; conditions: 0 to 100 scale, 0 no effect, 100 complete control
Source text: as §1

[7] = system: wheat (Triticum aestivum); test: Test A postemergence, wheat; conditions: 0 to 100 scale, 0 no effect, 100 complete control
Source text: as §1

kochia (Kochia scoparia) [8] = test: Test A postemergence, kochia; conditions: 0 to 100 scale, 0 no effect, 100 complete control
Source text: as §1

[9] = system: galium (catchweed bedstraw, Galium aparine); test: Test A postemergence, galium; conditions: 0 to 100 scale, 0 no effect, 100 complete control
Source text: as §1

[10] = system: barnyardgrass (Echinochloa crus-galli); test: Test A postemergence, barnyardgrass; conditions: 0 to 100 scale, 0 no effect, 100 complete control
Source text: as §1

[11] = system: sedge, umbrella (small-flower umbrella sedge, Cyperus difformis); test: Test B flooded paddy test, sedge, umbrella; conditions: Flood, scale 0 to 100 (0 no effect, 100 complete control), 13 to 15 d
Experimental: as §2

[12] = system: blackgrass (Alopecurus myosuroides); test: Test A postemergence, blackgrass; conditions: 0 to 100 scale, 0 no effect, 100 complete control
Source text: as §1

[13] = system: ducksalad (Heteranthera limosa); test: Test B flooded paddy test, ducksalad; conditions: Flood, scale 0 to 100 (0 no effect, 100 complete control), 13 to 15 d
Experimental: as §2

[14] = system: pigweed (Amaranthus retroflexus); test: Test A postemergence, pigweed; conditions: 0 to 100 scale, 0 no effect, 100 complete control
Source text: as §1

[15] = system: ragweed (common ragweed, Ambrosia elatior); test: Test A preemergence, ragweed; conditions: 0 to 100 scale, 0 no effect, 100 complete control
Source text: as §1

kochia (Kochia scoparia) [16] = test: Test A preemergence, kochia; conditions: 0 to 100 scale, 0 no effect, 100 complete control
Source text: as §1

[17] = system: barnyardgrass (Echinochloa crus-galli); test: Test B flooded paddy test, barnyardgrass; conditions: Flood, scale 0 to 100 (0 no effect, 100 complete control), 13 to 15 d
Experimental: as §2

[18] = system: ryegrass, Italian (Italian ryegrass, Lolium multiflorum); test: Test A postemergence, ryegrass, Italian; conditions: 0 to 100 scale, 0 no effect, 100 complete control
Source text: as §1

| SMILES | Plant response rating, Barnyardgrass ([1]; 125 g ai/ha) | Plant response rating, Barnyardgrass ([1]; 500 g ai/ha) | Plant response rating, Foxtail, Giant ([2]; 125 g ai/ha) | Plant response rating, Foxtail, Giant ([2]; 500 g ai/ha) | Plant response rating, Pigweed ([3]; 125 g ai/ha) | Plant response rating, Pigweed ([3]; 500 g ai/ha) | Plant response rating, Ragweed ([4]; 125 g ai/ha) | Plant response rating, Ragweed ([4]; 500 g ai/ha) | Plant response rating, Ryegrass, Italian ([5]; 125 g ai/ha) | Plant response rating, Ryegrass, Italian ([5]; 500 g ai/ha) | Plant response rating, Foxtail, Giant ([6]; 125 g ai/ha) | Plant response rating, Foxtail, Giant ([6]; 500 g ai/ha) | Plant response rating, Corn (corn (Zea mays); 125 g ai/ha) | Plant response rating, Corn (corn (Zea mays); 500 g ai/ha) | Plant response rating, Wheat ([7]; 125 g ai/ha) | Plant response rating, Wheat ([7]; 500 g ai/ha) | Plant response rating, Kochia (kochia (Kochia scoparia) [8]; 125 g ai/ha) | Plant response rating, Kochia (kochia (Kochia scoparia) [8]; 500 g ai/ha) | Plant response rating, Galium ([9]; 125 g ai/ha) | Plant response rating, Galium ([9]; 500 g ai/ha) | further results |
| --- | --- | --- | --- | --- | --- | --- | --- | --- | --- | --- | --- | --- | --- | --- | --- | --- | --- | --- | --- | --- | --- |
| O=C1NCC(c2ccccc2)N1C(=O)Nc1ccccc1F (stereo not drawn) [Compound 5] | 0 | 0 | 0 | 0 | 0 | 0 | 0 | 0 | 0 | 0 | 0 | 0 | 0 | 0 | 0 | 0 | 0 | 0 | 0 | 0 | Plant response rating, Rice (rice (Oryza sativa); 1000 g ai/ha): 0; Plant response rating, Barnyardgrass ([10]; 125 g ai/ha): 0; Plant response rating, Barnyardgrass ([10]; 500 g ai/ha): 0; Plant response rating, Sedge, Umbrella ([11]; 1000 g ai/ha): 0; Plant response rating, Blackgrass ([12]; 125 g ai/ha): 0; Plant response rating, Blackgrass ([12]; 500 g ai/ha): 0; Plant response rating, Ducksalad ([13]; 1000 g ai/ha): 90; Plant response rating, Pigweed ([14]; 125 g ai/ha): 0; Plant response rating, Pigweed ([14]; 500 g ai/ha): 0; Plant response rating, Ragweed ([15]; 125 g ai/ha): 0; Plant response rating, Ragweed ([15]; 500 g ai/ha): 0; Plant response rating, Kochia (kochia (Kochia scoparia) [16]; 125 g ai/ha): 0; Plant response rating, Kochia (kochia (Kochia scoparia) [16]; 500 g ai/ha): 0; Plant response rating, Barnyardgrass ([17]; 1000 g ai/ha): 0; Plant response rating, Ryegrass, Italian ([18]; 125 g ai/ha): 0; Plant response rating, Ryegrass, Italian ([18]; 500 g ai/ha): 0 |
| O=C1NCC(c2ccc(F)c(F)c2)N1C(=O)Nc1cccc(F)c1F (stereo not drawn) [Compound 11, N-(2,3-difluorophenyl)-5-(3,4-difluorophenyl)-2-oxo-1-imidazolidinecarboxamide] | 0 | 40 | 0 | 30 | 0 | 0 | 0 | 0 | 0 | 30 | 0 | 80 | 0 | 0 | 0 | 0 | 0 | 0 | 0 | 0 | Plant response rating, Rice (rice (Oryza sativa); 500 g ai/ha): 0; Plant response rating, Barnyardgrass ([10]; 125 g ai/ha): 0; Plant response rating, Barnyardgrass ([10]; 500 g ai/ha): 20; Plant response rating, Sedge, Umbrella ([11]; 500 g ai/ha): 0; Plant response rating, Blackgrass ([12]; 125 g ai/ha): 0; Plant response rating, Blackgrass ([12]; 500 g ai/ha): 0; Plant response rating, Ducksalad ([13]; 500 g ai/ha): 60; Plant response rating, Pigweed ([14]; 125 g ai/ha): 0; Plant response rating, Pigweed ([14]; 500 g ai/ha): 0; Plant response rating, Ragweed ([15]; 125 g ai/ha): 0; Plant response rating, Ragweed ([15]; 500 g ai/ha): 0; Plant response rating, Kochia (kochia (Kochia scoparia) [16]; 125 g ai/ha): 0; Plant response rating, Kochia (kochia (Kochia scoparia) [16]; 500 g ai/ha): 30; Plant response rating, Barnyardgrass ([17]; 500 g ai/ha): 0; Plant response rating, Ryegrass, Italian ([18]; 125 g ai/ha): 0; Plant response rating, Ryegrass, Italian ([18]; 500 g ai/ha): 0 |
